From patent publication US7205433B2, “Crystal of amino acid ester salt and process for producing the same” (Ajinomoto Co., Inc., priority 2002, dated 2007) come the findings set out here.

The structures appear in SMILES notation.

This data set in a line: Comparative Example 9: crystals left standing at room temperature. In kind it is physicochemical. The note with it: left standing at room temperature for a while.

Text: The crystals were separated and dried to give L-alanine methyl ester benzenesulfonate (L-Ala-OMe BsOH salt) crystals. The crystals were left standing at room temperature for a while.

Take `COC(=O)[C@H](C)N.O=S(=O)(O)c1ccccc1` [L-Ala-OMe BsOH salt, L-alanine methyl ester benzenesulfonate]: the “stability of the crystals” value is “the crystals were liquefied and failed to provide stable crystals”.
